Reference: the supplement of paper PMC10307832

How the values were obtained:
Assay in all cases: relative viability (nuclei count vs DMSO), 5 days (fraction); higher = more cells survive
[1] = compound: Cc1nc(Nc2ncc(C(=O)Nc3c(C)cccc3Cl)s2)cc(N2CCN(CCO)CC2)n1 [Dasatinib] + CC(=O)c1c(C)c2cnc(Nc3ccc(N4CCNCC4)cn3)nc2n(C2CCCC2)c1=O [Palbociclib] (partner 0.5 µM)
Procedure, shortened: (§1)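 Lung cancer cell lines were seeded in 1536-well plates and dosed by pin tool the next day, with either a single drug or a fixed anchor-drug dose combined with five library-drug doses (not always all listed) spaced in √10 steps. Five days later, one step fixed the cells and stained their nuclei (final 0.05% Triton X-100, 1% formaldehyde, 1 ug/ml Hoechst), and nuclei were counted on 4× images. Relative viability is the nuclei count in treated wells divided by the count in vehicle wells, and each value is the median of duplicate plates.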

[2] = compound: Cc1nc(Nc2ncc(C(=O)Nc3c(C)cccc3Cl)s2)cc(N2CCN(CCO)CC2)n1 [Dasatinib] + CC1(C)CCC(c2ccc(Cl)cc2)=C(CN2CCN(c3ccc(C(=O)NS(=O)(=O)c4ccc(N[C@H](CCN5CCOCC5)CSc5ccccc5)c(S(=O)(=O)C(F)(F)F)c4)cc3)CC2)C1 [Navitoclax] (partner 0.5 µM)
Procedure, shortened: as §1

[3] = compound: C1CC1C(=O)NC2=NNC3=C2C=CC(=C3)C4=CC(=CC=C4)C(=O)NC5CC5 [XMD13-2] + O=C(CCCCCCC(=O)Nc1ccccc1)NO [Vorinostat] (partner 1 µM)
Procedure, shortened: as §1

[4] = compound: C1CC1C(=O)NC2=NNC3=C2C=CC(=C3)C4=CC(=CC=C4)C(=O)NC5CC5 [XMD13-2] + COc1cc2c(Oc3ccc(NC(=O)C4(C(=O)Nc5ccc(F)cc5)CC4)cc3F)ccnc2cc1OCCCN1CCOCC1 [Foretinib] (partner 0.25 µM)
Procedure, shortened: as §1

Cell Line	relative viability ([1]; first compound 0.005 µM)	relative viability ([1]; first compound 0.01581 µM)	relative viability ([1]; first compound 0.05 µM)	relative viability ([1]; first compound 0.1581 µM)	relative viability ([1]; first compound 0.5 µM)	relative viability ([2]; first compound 0.005 µM)	relative viability ([2]; first compound 0.01581 µM)	relative viability ([2]; first compound 0.05 µM)	relative viability ([2]; first compound 0.1581 µM)	relative viability ([2]; first compound 0.5 µM)	relative viability ([3]; first compound 0.05 µM)	relative viability ([3]; first compound 0.1581 µM)	relative viability ([3]; first compound 0.5 µM)	relative viability ([3]; first compound 1.581 µM)	relative viability ([3]; first compound 5 µM)	relative viability ([4]; first compound 0.05 µM)	relative viability ([4]; first compound 0.1581 µM)	relative viability ([4]; first compound 0.5 µM)	relative viability ([4]; first compound 1.581 µM)	relative viability ([4]; first compound 5 µM)
201T	0.341	0.306	0.311	0.296	0.237	1.15	1.2	1.13	1.01	0.65	0.997	1.04	1.05	0.981	1.04	1.28	1.09	1.12	1.15	1.16
A549	–	–	–	–	–	1.27	1.2	1.27	1.06	0.443	–	–	–	–	–	1.08	0.972	0.902	0.965	0.97
A-427	0.5	0.507	0.525	0.42	0.394	0.891	0.92	0.673	0.476	0.495	0.927	0.852	0.862	–	0.705	1.23	1.08	1.05	1.02	0.745
ABC-1	0.625	0.5	0.662	0.524	0.688	–	–	–	–	–	1.3	0.979	1.03	–	0.774	0.949	1.1	1.41	1.03	0.846
BEN	0.448	0.387	0.43	0.365	0.34	0.0479	0.0657	0.0572	0.0599	0.0611	0.625	0.543	0.585	0.574	0.487	0.802	0.829	0.654	0.53	0.737
CAL-12T	0.418	0.414	0.402	0.191	0.144	1.36	1.17	1.49	1.35	0.97	0.76	0.652	0.792	0.71	1.06	1.22	1.07	1.09	1.11	1.01
COR-L23	0.317	0.229	0.229	0.168	0.19	1.01	0.85	0.797	0.55	0.347	0.58	0.566	0.737	0.368	0.544	1.14	0.986	0.977	0.986	0.942
COR-L 105	0.429	0.363	0.368	0.371	0.275	0.588	0.49	0.52	0.368	0.278	0.781	0.929	1.01	0.79	0.847	1.16	1.19	0.729	0.883	0.899
Calu-6	–	–	–	–	–	0.762	0.759	0.646	0.571	0.589	–	–	–	–	–	0.954	0.906	0.89	0.909	0.772
ChaGo-K-1	0.947	0.881	0.892	0.802	0.634	0.618	1.08	0.965	0.909	0.923	0.789	0.635	0.837	0.7	0.716	0.883	0.885	0.944	0.882	0.932
EBC-1	–	–	–	–	–	0.477	0.289	0.314	0.25	0.283	–	–	–	–	–	0.0838	0.0911	0.109	0.124	0.0963
EKVX	0.412	0.319	0.332	0.199	0.13	0.951	0.958	0.821	0.407	0.18	0.785	0.625	0.758	0.661	0.702	0.919	0.746	0.699	0.64	0.83
EMC-BAC-2	0.507	0.424	0.417	0.319	0.243	1.13	0.939	0.936	0.548	0.28	0.502	0.43	0.438	–	0.36	1.11	1.01	0.791	0.957	0.61
EPLC-272H	0.31	0.327	0.314	0.296	0.143	1.32	1.06	1.39	0.959	0.473	0.474	0.473	0.374	0.33	0.0998	0.71	0.629	0.644	0.568	0.187
H3255	0.312	0.333	0.329	0.317	0.274	0.542	0.527	0.388	0.187	0.115	0.839	0.716	0.746	–	0.662	0.886	0.891	0.893	0.696	0.984
HARA	0.303	0.243	0.155	0.177	0.114	1.15	0.974	1	0.596	0.326	0.555	0.484	0.536	0.578	0.372	1.1	0.854	0.834	1.01	0.616
HCC-15	0.714	0.669	0.673	0.578	0.565	0.692	0.528	0.555	0.332	0.239	0.971	0.862	0.957	0.764	0.823	1.14	1	1.14	0.981	0.62
HCC-44	1.07	0.878	1.06	1.14	1.29	0.93	0.916	0.98	0.761	0.436	1.11	1.17	1.21	1.09	1.09	–	–	–	–	–
HCC-78	0.459	0.429	0.443	0.382	0.239	0.619	0.58	0.688	0.601	0.247	0.481	0.489	0.454	0.445	0.413	0.541	0.539	0.502	0.51	0.487
HCC-366	0.412	0.185	0.173	0.114	0.0885	0.561	0.601	0.39	0.569	0.217	0.439	0.291	0.386	0.379	0.399	1.02	0.915	0.952	0.905	0.896

Cell Line	relative viability ([1]; first compound 0.005 µM)	relative viability ([1]; first compound 0.01581 µM)	relative viability ([1]; first compound 0.05 µM)	relative viability ([1]; first compound 0.1581 µM)	relative viability ([1]; first compound 0.5 µM)	relative viability ([2]; first compound 0.005 µM)	relative viability ([2]; first compound 0.01581 µM)	relative viability ([2]; first compound 0.05 µM)	relative viability ([2]; first compound 0.1581 µM)	relative viability ([2]; first compound 0.5 µM)	relative viability ([3]; first compound 0.05 µM)	relative viability ([3]; first compound 0.1581 µM)	relative viability ([3]; first compound 0.5 µM)	relative viability ([3]; first compound 1.581 µM)	relative viability ([3]; first compound 5 µM)	relative viability ([4]; first compound 0.05 µM)	relative viability ([4]; first compound 0.1581 µM)	relative viability ([4]; first compound 0.5 µM)	relative viability ([4]; first compound 1.581 µM)	relative viability ([4]; first compound 5 µM)
HCC-827	0.438	0.458	0.419	0.135	0.114	1.01	1.01	1.01	0.719	0.188	0.838	0.937	0.956	0.765	1.06	1.11	1.04	0.951	1.05	0.704
HOP-62	0.391	0.381	0.506	0.431	0.182	1.02	1.01	0.829	1.09	0.372	0.612	0.587	0.658	0.694	0.537	1.11	1.13	1.19	1.06	1
IA-LM	–	–	–	–	–	0.878	0.923	1.04	0.876	0.665	0.954	1.05	0.96	–	0.718	1.07	1.29	1.12	1.11	0.621
LC-2-ad	0.515	0.471	0.477	0.299	0.159	0.553	0.418	0.341	0.13	0.1	0.721	0.703	0.717	0.696	0.722	1.07	1.07	0.987	0.789	0.807
LCLC-97TM1	0.203	0.227	0.246	0.2	0.13	0.448	0.488	0.579	0.413	0.282	0.769	0.551	0.747	0.532	0.301	1.04	0.918	0.975	0.965	0.685
LCLC-103H	0.506	0.47	0.452	0.453	0.404	–	–	–	–	–	0.891	0.83	0.817	0.696	0.751	0.759	0.726	0.735	0.61	0.575
LK-2	0.583	–	0.41	0.217	0.223	0.782	0.594	0.373	0.292	0.245	0.439	0.201	0.212	0.198	0.137	1.45	0.959	1.06	1.16	1.16
NCI-H358	0.144	0.129	0.101	0.0794	0.0791	–	–	–	–	–	0.751	0.687	0.692	0.489	0.442	0.805	0.767	0.904	0.685	0.335
NCI-H522	1.1	0.802	0.985	0.773	0.722	–	–	–	–	–	0.856	0.873	0.805	0.982	0.907	–	–	–	–	–
NCI-H596	–	–	–	–	–	0.818	0.707	0.726	0.253	0.187	0.726	0.612	0.582	0.61	1.02	0.89	0.62	1.03	0.852	0.888
NCI-H650	0.307	0.326	0.343	0.323	0.261	–	–	–	–	–	0.526	0.416	0.46	0.348	0.497	1.16	1.02	1.14	1.06	0.972
NCI-H661	0.429	0.412	0.386	0.345	0.282	–	–	–	–	–	0.811	0.75	0.75	0.825	0.563	1	1.06	1.04	1.02	0.875
NCI-H1299	–	–	–	–	–	1.04	1.05	1.1	0.6	0.31	–	–	–	–	–	1.02	1.12	1.15	1.14	1.16
NCI-H1563	–	–	–	–	–	–	–	–	–	–	–	–	–	–	–	0.883	1.06	0.99	0.961	0.866
NCI-H1623	–	–	–	–	–	–	–	–	–	–	–	–	–	–	–	0.898	0.864	0.892	0.824	0.947
NCI-H1648	0.281	0.29	0.334	0.298	0.243	–	–	–	–	–	0.733	–	0.42	0.391	0.459	–	–	–	–	–
NCI-H1703	–	–	–	–	–	0.567	0.38	0.238	0.17	0.146	–	–	–	–	–	0.303	0.411	–	0.336	0.393
NCI-H1792	0.685	0.639	0.566	0.429	0.271	0.627	0.606	0.541	0.402	0.296	–	–	–	–	–	–	–	–	–	–
NCI-H2342	0.483	0.646	0.464	0.393	0.267	–	–	–	–	–	0.741	0.736	0.831	0.687	0.773	0.973	1.04	1.11	0.984	1.01
SW 900	0.454	0.273	0.276	0.222	0.183	–	–	–	–	–	0.721	0.42	0.501	0.45	0.623	1.1	0.963	0.922	0.963	0.677
